{"source": "paper PMC7468206", "about": "“Molecular Deceleration Regulates Toxicant Release to Prevent Cell Damage in Pseudomonas putida S16 (DSM 28022)” (mBio, 2020)", "target": "T1, full-length (FL) wild-type (WT) NicA2 (Pseudomonas putida, UniProt F8G0P2)", "T1 construct": "full length, C-terminal 6xHis (pET28a), E. coli BL21(DE3); FAD-containing; the assays say only WT NicA2, full length inferred from cloning section", "T1 sequence (F8G0P2 1-482)": "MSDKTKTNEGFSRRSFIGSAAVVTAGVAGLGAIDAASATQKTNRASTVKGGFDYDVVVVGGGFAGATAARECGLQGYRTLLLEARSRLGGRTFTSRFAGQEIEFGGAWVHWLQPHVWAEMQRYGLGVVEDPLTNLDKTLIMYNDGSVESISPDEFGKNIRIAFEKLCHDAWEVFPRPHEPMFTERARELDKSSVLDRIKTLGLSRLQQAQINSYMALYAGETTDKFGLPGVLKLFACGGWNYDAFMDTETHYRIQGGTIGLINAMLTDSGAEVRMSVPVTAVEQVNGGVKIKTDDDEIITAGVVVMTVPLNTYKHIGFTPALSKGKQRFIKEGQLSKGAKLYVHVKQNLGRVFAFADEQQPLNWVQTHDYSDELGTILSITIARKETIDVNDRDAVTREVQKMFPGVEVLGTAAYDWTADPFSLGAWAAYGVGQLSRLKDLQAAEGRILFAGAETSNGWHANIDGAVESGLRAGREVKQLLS", "experiment": "Ni-NTA removal of enzyme, GC of free versus total product", "format": "binding", "details": "25 °C, 1.5 h, equimolar nicotine; product formed in situ; construct (full length or 21-482) not stated"}
{"compound": "CNCCCC(=O)c1cccnc1", "note": "[pseudooxynicotine]", "values": [{"measurement": "Ni-NTA removal of enzyme, GC of free versus total product", "result": "only one-fourth of the PN produced in the reaction system was released to solution by NicA2"}]}
